Several values for one entry are separate records, joined by “and”; a condition that tells them apart may be missing. Equal values may be shown once.
How the values were obtained:
[1] = test system: high-fat diet (HFD)-induced obesity model mice; assay: Hepatic lipid analysis (total lipid, triglyceride, total cholesterol) in HFD mice; type: in vivo, C57BL/6J mice; design: Liver TC (Fig. 4c), individual mouse values / Liver TG (Fig. 4d), individual mouse values / Total lipid, liver (Fig. 4e), individual mouse values / Mean Diff., ND vs. treated (Fig. 4c) / Mean Diff., Vehicle vs. treated (Fig. 4c) / Mean (Fig. 4c) / Mean Diff., ND vs. treated (Fig. 4d) / Mean Diff., Vehicle vs. treated (Fig. 4d) / Mean (Fig. 4d) / Mean 2 (group mean), Fig. 4e / Mean Diff., Vehicle vs. treatment, Fig. 4e: unit not given here; details: for Mean Diff., ND vs. treated (Fig. 4c) / Mean Diff., Vehicle vs. treated (Fig. 4c) / Mean Diff., ND vs. treated (Fig. 4d) / Mean Diff., Vehicle vs. treated (Fig. 4d): Tukey's multiple comparisons test; for Mean (Fig. 4c) / Mean (Fig. 4d) / Mean 2 (group mean), Fig. 4e: group mean, n=10; for Mean 2 (group mean), Fig. 4e: Tukey test details; for Mean Diff., Vehicle vs. treatment, Fig. 4e: vehicle mean 33.43 minus group mean
Method: Frozen livers were homogenized with chloroform-methanol (2:1), and the chloroform layer into which the liver lipids were extracted was collected. This extract was used to measure hepatic total lipid, triglyceride (TG), and total cholesterol (TC) contents. […] The total liver lipid content was measured according to the method described by Forch et al.[19].
Fig. 4 Effects of TH analogs on the accumulation of lipids in mice. […] After 3 weeks of injection, serum and liver tissues were collected, and the amount of serum cholesterol (a), serum triglycerides (b), liver cholesterol (c), liver triglycerides (d), and liver total lipids (e) were measured.

[2] = test system: high-fat diet (HFD)-induced obesity model mice; assay: Oil Red O staining of the liver section; type: in vivo, C57BL/6J mice; details: i.p. 1 µmol/kg·day, 3 weeks
Method: 20 µm sections were prepared from frozen liver tissues using Cryostat (CM3050 S, Leica). Sections were affixed to silane-coated glass slides, dried at room temperature, and stored at −80 °C until use. Before staining, sections were fixed with 1% PFA/1 × PBS, pH 7.4 (Gibco) for 5 min, immersed in 1 × PBS for 5 min, distilled water for 5 min, and 60% 2-propanol solution for 1 min. Oil Red O staining solution was prepared by mixing 0.36 g of Oil Red O (Sigma) with 120 mL of 2-propanol and 80 mL of distilled water, allowing the solution to stand at room temperature for 1 h, then filtering the solution and leaving it overnight at 37 °C. Sections were immersed in the Oil Red O staining solution at 37 °C for 15 min, rinsed in 60% 2-propanol for 1 min, and in distilled water for 1 min. Sections were counterstained with Meyer’s hematoxylin. […] The area of red-stained fat droplets was quantified using Image J (National Institutes of Health), and the percentage of the stained area in the total image area was calculated. Nine different parts in three consecutive sections per mouse were analyzed.
Fig. 5 Oil Red O staining of the liver section of mice treated with TH analogs. […] After three weeks of injection, liver tissues were collected, frozen sections were prepared, and subjected to Oil Red O staining (a). Stained areas were quantified and normalized to the total image area. […]

[3] = Serum ALT (hepatotoxicity); details: for Serum ALT, group mean (Mean 2): n 10, Vehicle mean […]; for serum ALT level vs vehicle: HFD mice, 3 weeks
Method: Male 7-week-old C57BL/6J mice were obtained from a local supplier (Nihon SLC, Shizuoka, Japan). The mice were individually housed in cages (Innocage; ORIENTAL GIKEN) at 23 °C with a 12-h-light–dark cycle starting at 08:00 a.m. […] The injection was prepared by dissolving the compounds in 0.5 N NaOH at a concentration of 100 mM, which was then further diluted with saline to a concentration of either 0.05 or 0.5 mM. The volume of the solution injected was determined based on the body weight of the animal, measured once a week, with 0.05 and 0.5 mM solutions injected at 0.1 and 1 µmol/kg day, respectively. Each group consisted of 10 animals, except for the ND (n = 8) and HFD with saline (vehicle, n = 9) groups. […] In the HFD-treated group, one animal was excluded from the analysis because its body weight was less than two standard deviations below the mean.
The blood samples were left to stand for 1 h at room temperature, then centrifuged at 4 °C for 15 min at 800 × g, and the supernatant was collected. […] Serum ALT levels were measured using Alanine Aminotransferase (ALT or SGPT) Activity Colorimetric/Fluorometric Assay Kit (BioVision) according to the manufacturer’s protocol.
Data are shown as the mean ± SEM (n = 8–10).

[4] = test system: left ventricular cardiomyocytes; assay: Trans-nuclear width of left ventricular cardiomyocytes (hematoxylin-eosin staining); details: for Mean Diff. (Vehicle vs. treated group): Vehicle minus treated, Tukey's multiple comparisons test; for Mean (group mean, Fig. 7c; Tukey's multiple comparisons test details) / Mean Diff. (Vehicle vs. treated group): Fig. 7c
Method: Male 7-week-old C57BL/6J mice were obtained from a local supplier (Nihon SLC, Shizuoka, Japan). The mice were individually housed in cages (Innocage; ORIENTAL GIKEN) at 23 °C with a 12-h-light–dark cycle starting at 08:00 a.m. […] The injection was prepared by dissolving the compounds in 0.5 N NaOH at a concentration of 100 mM, which was then further diluted with saline to a concentration of either 0.05 or 0.5 mM. The volume of the solution injected was determined based on the body weight of the animal, measured once a week, with 0.05 and 0.5 mM solutions injected at 0.1 and 1 µmol/kg day, respectively. Each group consisted of 10 animals, except for the ND (n = 8) and HFD with saline (vehicle, n = 9) groups. In the ND-treated group, one animal died during the experimental period, and one animal was excluded from the analysis after finding tumor-like lesions in the liver. In the HFD-treated group, one animal was excluded from the analysis because its body weight was less than two standard deviations below the mean.
Heart tissues were fixed, dehydrated, and permeated with paraffin using an automatic fixation and encapsulation device (Sakura Finetech, Japan). Paraffin blocks were prepared using Tissue Tech TEC 6 (Sakura Finetech, Japan), and 5 µm-thick transverse transmural sections were prepared with a microtome (Leica). The sections were deparaffinized, rehydrated, and immersed in Meyer’s hematoxylin solution (FUJIFILM Wako Pure Chemical Industries), followed by eosin staining. Sections were dehydrated and mounted using Entellan New (Merck). Sections were observed under a microscope (BX43; Olympus) at × 400 magnification and digital images were captured using cellSens (Olympus). 100 cells were randomly selected from the left ventricle of an individual mouse, and their trans-nuclear widths were measured according to Oláh et al.[23] using Image J (National Institute of Health).
Heart sections were prepared and subjected to hematoxylin–eosin staining. 100 cells were randomly selected from the left ventricle of an individual mouse, their trans-nuclear widths were measured, and average values were calculated. Data are shown as the mean ± SEM (n = 8–10). Significant differences among groups are indicated by asterisks (*P < 0.05, **P < 0.01, ***P < 0.001, and ****P < 0.0001, one-way ANOVA with Tukey’s post-hoc test) (c).

[5] = Heart weight (cardiac hypertrophy); details: for Heart weight, group mean (Mean 2): n 10, Vehicle mean 136.7; for heart weight vs vehicle: HFD mice, 3 weeks
Method: Male 7-week-old C57BL/6J mice were obtained from a local supplier (Nihon SLC, Shizuoka, Japan). The mice were individually housed in cages (Innocage; ORIENTAL GIKEN) at 23 °C with a 12-h-light–dark cycle starting at 08:00 a.m. […] The injection was prepared by dissolving the compounds in 0.5 N NaOH at a concentration of 100 mM, which was then further diluted with saline to a concentration of either 0.05 or 0.5 mM. The volume of the solution injected was determined based on the body weight of the animal, measured once a week, with 0.05 and 0.5 mM solutions injected at 0.1 and 1 µmol/kg day, respectively. Each group consisted of 10 animals, except for the ND (n = 8) and HFD with saline (vehicle, n = 9) groups.
After three weeks of daily injections, the body weights of the mice were measured. […] Subsequently, the animals were euthanized using deep isoflurane anesthesia, and the liver, heart, and epididymal adipose tissues were removed from the body. […] Hearts were weighed and fixed in 4% paraformaldehyde for 48 h in a cassette (Sakura Finetek Japan, Tokyo, Japan).
Heart weight was measured to assess heart toxicity. Data are shown as the mean ± SEM (n = 8–10). Significant differences among groups are indicated by asterisks (*P < 0.05, and ****P < 0.0001, one-way ANOVA with Tukey’s post-hoc test) (b).

[6] = HFD mice, i.p., dose not given (0.1 or 1 µmol/kg day), 3 weeks
[7] = 0.1 µmol dose group vs. Vehicle

For `Cc1cc(OCC(=O)O)cc(C)c1Cc1ccc(O)c(C(C)C)c1` [GC-1], the “Liver TC (Fig. 4c), individual mouse values” ([1]; 0.1 µmol, HFD mice) was 1.641 and 1.677 and 1.869 and 2.323 and 2.266 and 1.713 and 1.915 and 2.417 and 2.05 and 2.041, the “Liver TG (Fig. 4d), individual mouse values” ([1]; 0.1 µmol, HFD mice) was 24.1421 and 24.9345 and 16.7281 and 53.1111 and 43.7729 and 30.8738 and 30.6856 and 28.2214 and 34.8729 and 73.7669 and the “Total lipid, liver (Fig. 4e), individual mouse values” ([1]; 0.1 µmol, HFD mice) was 14.6 and 17.3 and 14 and 22.6 and 24.3 and 18.1 and 18.3 and 16.9 and 17.5 and 26.9. For the same compound, the “Liver TC (Fig. 4c), individual mouse values” ([1]; 1 µmol, HFD mice) was 1.533 and 1.874 and 2.437 and 2.533 and 1.78 and 2.383 and 1.435 and 2.474 and 2.396 and 2.183, the “Liver TG (Fig. 4d), individual mouse values” ([1]; 1 µmol, HFD mice) was 36.2948 and 32.7305 and 46.4896 and 42.7911 and 37.2232 and 76.8394 and 41.2151 and 27.0034 and 47.7732 and 49.1408 and the “Total lipid, liver (Fig. 4e), individual mouse values” ([1]; 1 µmol, HFD mice) was 17.5 and 17.4 and 20.9 and 22.7 and 22.5 and 28.6 and 18.9 and 18.3 and 21 and 19.5. For the same compound, the “Mean Diff., ND vs. treated (Fig. 4c)” value ([1]; ND minus 0.1 µmol group) was -0.7328, the “Mean Diff., ND vs. treated (Fig. 4c)” value ([1]; ND minus 1 µmol group) was -0.8444 and the “Mean Diff., Vehicle vs. treated (Fig. 4c)” value ([1]; Vehicle minus 0.1 µmol group) was -0.4289. The “Mean Diff., Vehicle vs. treated (Fig. 4c)” value ([1]; Vehicle minus 1 µmol group) was -0.5405, the “Mean (Fig. 4c)” value ([1]; 0.1 µmol, HFD mice) was 1.991 and the “Mean (Fig. 4c)” value ([1]; 1 µmol, HFD mice) was 2.103. For the same compound, the “Mean Diff., ND vs. treated (Fig. 4d)” value ([1]; ND minus 0.1 µmol group) was -7.809, the “Mean Diff., ND vs. treated (Fig. 4d)” value ([1]; ND minus 1 µmol group) was -15.45 and the “Mean Diff., Vehicle vs. treated (Fig. 4d)” value ([1]; Vehicle minus 0.1 µmol group) was 37.27. For the same compound, the “Mean Diff., Vehicle vs. treated (Fig. 4d)” value ([1]; Vehicle minus 1 µmol group) was 29.63, the “Mean (Fig. 4d)” value ([1]; 0.1 µmol, HFD mice) was 36.11 and the “Mean (Fig. 4d)” value ([1]; 1 µmol, HFD mice) was 43.75. For the same compound, the “liver total lipids vs vehicle” value [1, 6] was “significantly decreased”, the “liver triglycerides vs vehicle” value [1, 6] was “significantly decreased” and the “Mean 2 (group mean), Fig. 4e” value ([1]; HFD mice, 0.1 µmol) was 19.05. The “Mean Diff., Vehicle vs. treatment, Fig. 4e” value ([1]; HFD mice, 0.1 µmol) was 14.38, the “Mean 2 (group mean), Fig. 4e” value ([1]; HFD mice, 1 µmol) was 20.73 and the “Mean Diff., Vehicle vs. treatment, Fig. 4e” value ([1]; HFD mice, 1 µmol) was 12.7.
In the case of `O=C(O)Cc1cc(C(F)(F)F)c(Cc2ccc(O)c3ccccc23)c(C(F)(F)F)c1` [ZTA-261], the “Oil Red O-positive area in liver sections vs vehicle” value [2] is reported as “significantly reduced”, the “Serum ALT (Fig.7a), individual animal values” ([3]; 0.1 µmol dose group) is reported as 6.621 and 5.838 and 5.844 and 8.207 and 7.718 and 6.528 and 9.431 and 12.922 and 7.155 and 6.407 and the “Serum ALT, Tukey's multiple comparisons test, Mean Diff. (Vehicle vs. compound)” value [3, 7] is reported as 3.439. The “Serum ALT, group mean (Mean 2)” value ([3]; 0.1 µmol dose group) was 7.667, the “Serum ALT (Fig.7a), individual animal values” ([3]; 1 µmol dose group) was 16.644 and 8.576 and 9.103 and 8.327 and 7.596 and 9.601 and 12.863 and 9.311 and 13.948 and 12.038 and the “Serum ALT, Tukey's multiple comparisons test, Mean Diff. (Vehicle vs. compound)” value ([3]; 1 µmol dose group vs. Vehicle) was 0.3054. The “Serum ALT, group mean (Mean 2)” value ([3]; 1 µmol dose group) was 10.8, the “serum ALT level vs vehicle” value ([3]; i.p. 0.1 µmol/kg day) was “did not show a significant increase” and the “serum ALT level vs vehicle” value ([3]; i.p. 1 µmol/kg day) was “did not show a significant increase”. For the same compound, the “cardiac width (Fig. 7c), individual values” ([4]; 0.1 µmol dose group) was 11.9852 and 12.1667 and 12.7952 and 11.4055 and 11.1301 and 11.9423 and 11.9907 and 12.4833 and 12.1061 and 13.5905, the “cardiac width (Fig. 7c), individual values” ([4]; 1 µmol dose group) was 12.0147 and 12.4259 and 11.3636 and 12.41 and 12.0185 and 12.8514 and 11.9471 and 13.2394 and 12.2836 and 12.7848 and the “Mean (group mean, Fig. 7c; Tukey's multiple comparisons test details)” value ([4]; HFD mice, dose 0.1 µmol) was 12.16. For the same compound, the “Mean (group mean, Fig. 7c; Tukey's multiple comparisons test details)” value ([4]; HFD mice, dose 1 µmol) was 12.33, the “transnuclear width of left ventricular cardiomyocytes vs vehicle” value ([4]; HFD mice, i.p. 1 µmol/kg day, 3 weeks) was “significantly increased” and the “Mean Diff. (Vehicle vs. treated group)” value ([4]; dose 0.1 µmol) was -1.182. The “Mean Diff. (Vehicle vs. treated group)” value ([4]; dose 1 µmol) was -1.356, the “Heart weight (Fig. 7b), individual animal values” ([5]; 0.1 µmol dose group) was 120.4 and 125.5 and 128.7 and 142.9 and 126.8 and 139.4 and 134.1 and 147.6 and 135.4 and 150.2 and the “Heart weight, Tukey's multiple comparisons test, Mean Diff. (Vehicle vs. compound)” value [5, 7] was 1.622. For the same compound, the “Heart weight, group mean (Mean 2)” value ([5]; 0.1 µmol dose group) was 135.1, the “Heart weight (Fig. 7b), individual animal values” ([5]; 1 µmol dose group) was 135 and 135.2 and 126.1 and 150.6 and 150.7 and 152.1 and 152.8 and 145.4 and 154.6 and 138.8 and the “Heart weight, Tukey's multiple comparisons test, Mean Diff. (Vehicle vs. compound)” value ([5]; 1 µmol dose group vs. Vehicle) was -7.408. The “Heart weight, group mean (Mean 2)” value ([5]; 1 µmol dose group) was 144.1, the “heart weight vs vehicle” value ([5]; i.p. 0.1 µmol/kg day) was “No such effect” and the “heart weight vs vehicle” value ([5]; i.p. 1 µmol/kg day) was “No such effect”.
